Assay [1] addresses T1, Recombinant (1-346) HPK1 (h) (Homo sapiens, UniProt Q92918).
T1 construct: Recombinant (1-346) HPK1 (h) is incubated with 8 mM MOPS pH 7.0
T1 sequence (Q92918 1-346): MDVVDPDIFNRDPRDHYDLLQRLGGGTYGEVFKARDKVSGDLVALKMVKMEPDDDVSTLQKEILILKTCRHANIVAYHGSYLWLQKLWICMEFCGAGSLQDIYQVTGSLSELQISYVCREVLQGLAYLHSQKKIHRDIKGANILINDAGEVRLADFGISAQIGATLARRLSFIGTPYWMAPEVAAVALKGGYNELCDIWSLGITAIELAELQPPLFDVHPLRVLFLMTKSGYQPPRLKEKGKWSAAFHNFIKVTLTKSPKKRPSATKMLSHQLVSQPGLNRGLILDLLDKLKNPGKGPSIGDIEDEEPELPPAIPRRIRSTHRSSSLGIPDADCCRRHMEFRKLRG
Nature of the assay: HPK1 Human STE Kinase Enzymatic Radiometric Assay. It counts as biochemical. Particulars: read-out: HPK1 IC50 nM Range*. As to the method:
A stock solution of 10 mM of test compound is prepared in DMSO. The compound plate was prepared by 3-fold and 9-point serial dilutions. […] The reaction is initiated by The addition of the Mg/ATP mix. After incubation for 40 minutes at RT, the reaction is stopped by the addition of phosphoric acid to a concentration of 0.5%.

A further assay has as its target Lck (h) (Homo sapiens, UniProt P06239). Nature of the assay: Lck Human  Kinase Enzymatic Radiometric Assay. Particulars: read-out: Lck IC50 nM Range*. It counts as biochemical. The method, boiled down:
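Substrate 33P-incorporation measured by scintillation counting after spotting on P30 filtermat and phosphoric acid washes. Human Lck reacted 40 min at RT in 50 mM Tris pH 7.5 with 10 mM MgAcetate, [gamma-33P]-ATP, 250 uM Cdc2 peptide, 0.1 mM EGTA and 0.1 mM Na3VO4.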

Chain of Lck (h) (P06239 whole entry): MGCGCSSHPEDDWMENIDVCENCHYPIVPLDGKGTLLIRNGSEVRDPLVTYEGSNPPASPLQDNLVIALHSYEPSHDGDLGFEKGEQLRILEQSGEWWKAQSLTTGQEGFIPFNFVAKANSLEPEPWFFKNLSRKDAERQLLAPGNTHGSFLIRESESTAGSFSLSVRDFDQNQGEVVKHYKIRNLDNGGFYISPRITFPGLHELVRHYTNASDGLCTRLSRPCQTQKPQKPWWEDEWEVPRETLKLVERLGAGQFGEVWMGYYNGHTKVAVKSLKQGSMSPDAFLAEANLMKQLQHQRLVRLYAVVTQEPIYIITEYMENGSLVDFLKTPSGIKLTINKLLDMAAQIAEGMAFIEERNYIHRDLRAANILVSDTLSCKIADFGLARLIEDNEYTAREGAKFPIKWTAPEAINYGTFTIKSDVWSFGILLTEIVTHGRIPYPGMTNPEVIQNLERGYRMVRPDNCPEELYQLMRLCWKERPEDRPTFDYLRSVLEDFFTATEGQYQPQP

On to `CC(C)[C@@H]1CN(c2ccc(-c3cc(-c4ccc5c(c4)CCNC5=O)c(N)nc3F)cc2)CCN1C` [I-48, (R)-6-(2-amino-6-fluoro-5-(4-(3-isopropyl-4-methylpiperazin-1-yl)phenyl)pyridin-3-yl)-3,4-dihydroisoquinolin-1(2H)-one], for which the 50% inhibitory concentration (IC50) (usually the concentration at which inhibition is half-maximal) was 0.1 to 10 nM in assay [1] and above 1000 nM on Lck (h).

For `CC(C)[C@@H]1CN(c2ccc(-c3cc(-c4ccc5c(c4)CCNC5=O)c(N)nc3F)c(F)c2)CCN1C` [I-49, (R)-6-(2-amino-6-fluoro-5-(2-fluoro-4-(3-isopropyl-4-methylpiperazin-1-yl)phenyl)pyridin-3-yl)-3,4-dihydroisoquinolin-1(2H)-one], the IC50 in assay [1] was 0.1 to 10 nM; at Lck (h) it was above 1000 nM.

On to `CC(C)[C@H]1CN(c2ccc(-c3cc(-c4ccc5c(c4)CCNC5=O)c(N)nc3F)cc2)CCN1C` [I-50, (S)-6-(2-amino-6-fluoro-5-(4-(3-isopropyl-4-methylpiperazin-1-yl)phenyl)pyridin-3-yl)-3,4-dihydroisoquinolin-1(2H)-one], for which the IC50 in assay [1] is 0.1 to 10 nM; at Lck (h), above 1000 nM.

Turning to `CC(C)[C@H]1CN(c2ccc(-c3cc(-c4ccc5c(c4)CCNC5=O)c(N)nc3F)c(F)c2)CCN1C` [I-51, (S)-6-(2-amino-6-fluoro-5-(2-fluoro-4-(3-isopropyl-4-methylpiperazin-1-yl)phenyl)pyridin-3-yl)-3,4-dihydroisoquinolin-1(2H)-one], the 50% inhibitory concentration (IC50) in assay [1] was 0.1 to 10 nM; on Lck (h) it was above 1000 nM.

For `CCN1CCCC(c2ccc(-c3cc(-c4ccc5c(c4)CCNC5=O)c(N)nc3F)cc2)C1` (centres unmarked) [I-52, 6-(2-amino-5-(4-(1-ethylpiperidin-3-yl)phenyl)-6-fluoropyridin-3-yl)-3,4-dihydroisoquinolin-1(2H)-one], the IC50 in assay [1] was 0.1 to 10 nM; at Lck (h) it was above 1000 nM.

In the case of `CCN1CCC(c2ccc(-c3cc(-c4ccc5c(c4)CCNC5=O)c(N)nc3F)cc2)CC1` [I-53, 6-(2-amino-5-(4-(1-ethylpiperidin-4-yl)phenyl)-6-fluoropyridin-3-yl)-3,4-dihydroisoquinolin-1(2H)-one], the IC50 was 0.1 to 10 nM in assay [1] and above 1000 nM at Lck (h).

As to `CS(=O)(=O)N1CCC(Oc2ccc(-c3cc(-c4ccc5c(c4)CCNC5=O)c(N)nc3F)cc2)CC1` [I-54, 6-(2-amino-6-fluoro-5-(4-((1-(methylsulfonyl)piperidin-4-yl)oxy)phenyl)pyridin-3-yl)-3,4-dihydroisoquinolin-1(2H)-one], the figures for the IC50 (in assay [1]; at Lck (h)) were 0.1 to 10 nM and above 1000 nM, respectively.

For the molecule `Nc1nc(F)c(-c2cnn(C3CCOCC3)c2)cc1-c1ccc2c(c1)CCNC2=O` [I-55, 6-(2-amino-6-fluoro-5-(1-(tetrahydro-2H-pyran-4-yl)-1H-pyrazol-4-yl)pyridin-3-yl)-3,4-dihydroisoquinolin-1(2H)-one], the IC50 was 0.1 to 10 nM in assay [1] and above 1000 nM at Lck (h).

For `CC(C)(C)OC(=O)N1CC=C(c2ccc(-c3cc(-c4ccc5c(c4)CCNC5=O)c(N)nc3F)cc2)CC1` [I-56, tert-butyl4-(4-(6-amino-2-fluoro-5-(1-oxo-1,2,3,4-tetrahydroisoquinolin-6-yl)pyridin-3-yl)phenyl)-3,6-dihydropyridine-1(2H)-carboxylate], the concentration for half-maximal inhibition (IC50) in assay [1] was 11 to 100 nM; on Lck (h), above 1000 nM.

Turning to `Nc1nc(F)c(-c2ccc(C3=CCNCC3)cc2)cc1-c1ccc2c(c1)CCNC2=O` [I-57, 6-(2-amino-6-fluoro-5-(4-(1,2,3,6-tetrahydropyridin-4-yl)phenyl)pyridin-3-yl)-3,4-dihydroisoquinolin-1(2H)-one 2,2,2-trifluoroacetate], the concentration for half-maximal inhibition (IC50) is 0.1 to 10 nM in assay [1] and above 1000 nM on Lck (h).

`CN1CCOc2cc(-c3cc(-c4ccc5c(c4)CCNC5=O)c(N)nc3F)ccc21` [I-58, 6-(2-amino-6-fluoro-5-(4-methyl-3,4-dihydro-2H-benzo[b][1,4]oxazin-7-yl)pyridin-3-yl)-3,4-dihydroisoquinolin-1(2H)-one]: the IC50 was 0.1 to 10 nM in assay [1] and above 1000 nM at Lck (h).

Take `Nc1nc(F)c(-c2ccc(N3CCCC3)cc2)cc1-c1ccc2c(c1)CCNC2=O` [I-59, 6-(2-amino-6-fluoro-5-(4-(pyrrolidin-1-yl)phenyl)pyridin-3-yl)-3,4-dihydroisoquinolin-1(2H)-one]: the IC50 is 11 to 100 nM in assay [1] and above 1000 nM on Lck (h).

Take `CN1CCN(c2ccc(-c3cc(-c4ccc5c(c4)CCNC5=O)c(N)nc3F)c(Cl)c2)CC1` [I-61, 6-(2-amino-5-(2-chloro-4-(4-methylpiperazin-1-yl)phenyl)-6-fluoropyridin-3-yl)-3,4-dihydroisoquinolin-1(2H)-one]: the concentration for half-maximal inhibition (IC50) was 0.1 to 10 nM in assay [1] and above 1000 nM on Lck (h).

`CS(=O)(=O)c1ccc(-c2cc(-c3ccc4c(c3)CCNC4=O)c(N)nc2F)cc1` [I-62, 6-(2-amino-6-fluoro-5-(4-(methylsulfonyl)phenyl)pyridin-3-yl)-3,4-dihydroisoquinolin-1(2H)-one]: the IC50 in assay [1] is 0.1 to 10 nM; on Lck (h) it was above 1000 nM.

Turning to `Nc1nc(F)c(-c2ccc(S(=O)(=O)C3CC3)cc2)cc1-c1ccc2c(c1)CCNC2=O` [I-63, 6-(2-amino-5-(4-(cyclopropylsulfonyl)phenyl)-6-fluoropyridin-3-yl)-3,4-dihydroisoquinolin-1(2H)-one], the IC50 in assay [1] was 0.1 to 10 nM; at Lck (h), above 1000 nM.

In the case of `CN(C)S(=O)(=O)c1ccc(-c2cc(-c3ccc4c(c3)CCNC4=O)c(N)nc2F)cc1` [I-64, 4-(6-amino-2-fluoro-5-(1-oxo-1,2,3,4-tetrahydroisoquinolin-6-yl)pyridin-3-yl)-N,N-dimethylbenzenesulfonamide], the concentration for half-maximal inhibition (IC50) was 0.1 to 10 nM in assay [1] and above 1000 nM at Lck (h).

On to `CCN(CC)S(=O)(=O)c1ccc(-c2cc(-c3ccc4c(c3)CCNC4=O)c(N)nc2F)cc1` [I-65, 4-(6-amino-2-fluoro-5-(1-oxo-1,2,3,4-tetrahydroisoquinolin-6-yl)pyridin-3-yl)-N,N-diethylbenzenesulfonamide], for which the concentration for half-maximal inhibition (IC50) in assay [1] was 11 to 100 nM; at Lck (h), above 1000 nM.

Regarding `Nc1nc(F)c(-c2ccc([C@@]34C[C@@H]3CN(C3CCOCC3)C4)cc2)cc1-c1ccc2c(c1)CCNC2=O` [I-66, 6-(2-amino-6-fluoro-5-(4-((1R,5S)-3-(tetrahydro-2H-pyran-4-yl)-3-azabicyclo[3.1.0]hexan-1-yl)phenyl)pyridin-3-yl)-3,4-dihydroisoquinolin-1(2H)-one], the half-inhibitory concentration (IC50) is 0.1 to 10 nM in assay [1] and above 1000 nM at Lck (h).

Consider `CCN1CCN(c2ccc(-c3cc(-c4ccc5c(c4)CCCNC5=O)c(N)nc3F)cc2)CC1` [I-67, 7-(2-amino-5-(4-(4-ethylpiperazin-1-yl)phenyl)-6-fluoropyridin-3-yl)-2,3,4,5-tetrahydro-1H-benzo[c]azepin-1-one], for which the IC50 is 11 to 100 nM in assay [1] and above 1000 nM on Lck (h).

On to `CN1CCN(c2ccc(-c3cc(-c4ccc5c(c4)CCNC5=O)c(N)nc3F)cc2C(F)(F)F)CC1` [I-68, 6-(2-amino-6-fluoro-5-(4-(4-methylpiperazin-1-yl)-3-(trifluoromethyl)phenyl)pyridin-3-yl)-3,4-dihydroisoquinolin-1(2H)-one], for which the IC50 in assay [1] was 0.1 to 10 nM; at Lck (h), above 1000 nM.

With `CCN1CCN(c2ccc(-c3cc(-c4ccc5c(c4)C(C)(C)CNC5=O)c(N)nc3F)cc2)CC1` [I-69, 6-(2-amino-5-(4-(4-ethylpiperazin-1-yl)phenyl)-6-fluoropyridin-3-yl)-4,4-dimethyl-3,4-dihydroisoquinolin-1(2H)-one], the values for the IC50 (in assay [1]; on Lck (h)) were 0.1 to 10 nM and 101 to 1000 nM, respectively.

For `CCN1CCN(c2ccc(-c3cc(-c4ccc5c(c4)CC(C)(C)NC5=O)c(N)nc3F)cc2)CC1` [I-70, 6-(2-amino-5-(4-(4-ethylpiperazin-1-yl)phenyl)-6-fluoropyridin-3-yl)-3,3-dimethyl-3,4-dihydroisoquinolin-1(2H)-one 2,2,2-trifluoroacetate], the IC50 in assay [1] was 11 to 100 nM; at Lck (h), above 1000 nM.

For `CCN1C[C@H]2C[C@@]2(c2ccc(-c3cc(-c4ccc5c(c4)CCNC5=O)c(N)nc3F)cc2)C1` [I-71, 6-(2-amino-5-(4-((1R,5S)-3-ethyl-3-azabicyclo[3.1.0]hexan-1-yl)phenyl)-6-fluoropyridin-3-yl)-3,4-dihydroisoquinolin-1(2H)-one], the IC50 in assay [1] was 0.1 to 10 nM; on Lck (h) it was above 1000 nM.

Regarding `Nc1nc(F)c(-c2ccc([C@@]34C[C@@H]3CN(CC(F)F)C4)cc2)cc1-c1ccc2c(c1)CCNC2=O` [I-72, 6-(2-amino-5-(4-((1R,5S)-3-(2,2-difluoroethyl)-3-azabicyclo[3.1.0]hexan-1-yl)phenyl)-6-fluoropyridin-3-yl)-3,4-dihydroisoquinolin-1(2H)-one], the values for the IC50 (in assay [1]; on Lck (h)) were 11 to 100 nM and above 1000 nM, respectively.

As for `Nc1nc(F)c(-c2ccc(C3=CCN(CC(F)F)CC3)cc2)cc1-c1ccc2c(c1)CCNC2=O` [I-73, 6-(2-amino-5-(4-(1-(2,2-difluoroethyl)-1,2,3,6-tetrahydropyridin-4-yl)phenyl)-6-fluoropyridin-3-yl)-3,4-dihydroisoquinolin-1(2H)-one], the IC50 in assay [1] was 0.1 to 10 nM; at Lck (h), above 1000 nM.
